SMILES strings stand for the structures. Several values for one entry are separate records, joined by “and”; a condition that tells them apart may be missing. Equal values may be shown once. Inconclusive results and toxic doses are left out.

The test system of the experiment is B6C3F1 mice, B16 melanoma ip, median survival T/C. Put plainly: NCI In Vivo Anticancer Drug Screen. Data for tumor model B16 Melanoma (intraperitoneal) in B6C3F1 mice. As to conditions: endpoint: median survival time, schedule: Q01DX009 (ip), higher = longer survival. An outline of the steps: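 Readout: survival or tumor size in treated mice relative to vehicle controls (T/C). Model uses transplantable tumors grown in mice.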

Where [1] appears, read: dose: 12.5 mg/kg/injection, vehicle: Klucel (hydroxypropylcellulose) (HPC).
[2] abbreviates: dose: 25.0 mg/kg/injection, vehicle: Klucel (hydroxypropylcellulose) (HPC).
Setting [3] is: dose: 50.0 mg/kg/injection, vehicle: Klucel (hydroxypropylcellulose) (HPC).
Where [4] appears, read: dose: 100.0 mg/kg/injection, vehicle: Klucel (hydroxypropylcellulose) (HPC).
Where [5] appears, read: dose: 200.0 mg/kg/injection, vehicle: Klucel (hydroxypropylcellulose) (HPC).
Where [6] appears, read: dose: 400.0 mg/kg/injection, vehicle: Klucel (hydroxypropylcellulose) (HPC).
Where [7] appears, read: dose: 100.0 mg/kg/injection, vehicle: saline.
Where [8] appears, read: dose: 3.13 mg/kg/injection, vehicle: Klucel (hydroxypropylcellulose) (HPC).
The mark [9] stands for this setting: dose: 6.25 mg/kg/injection, vehicle: Klucel (hydroxypropylcellulose) (HPC).
Where [10] appears, read: dose: 12.5 mg/kg/injection, vehicle: saline with Tween-80.
[11] abbreviates: dose: 25.0 mg/kg/injection, vehicle: saline with Tween-80.
[12] abbreviates: dose: 50.0 mg/kg/injection, vehicle: saline with Tween-80.
Where [13] appears, read: dose: 100.0 mg/kg/injection, vehicle: saline with Tween-80.
Where [14] appears, read: dose: 200.0 mg/kg/injection, vehicle: saline with Tween-80.
[15] abbreviates: dose: 1.5 mg/kg/injection, vehicle: saline with Tween-80.
[16] abbreviates: dose: 3.0 mg/kg/injection, vehicle: saline with Tween-80.
The mark [17] stands for this setting: dose: 6.0 mg/kg/injection, vehicle: saline with Tween-80.

Consider `O=c1ssc(=Nc2ccccc2)n1-c1ccccc1`, for which the T/C is, setting by setting: under setting [1], 98 % of control; under setting [2], 101 % of control; under setting [3], 96 % of control; under setting [4], 97 % of control; under setting [5], 92 % of control; under setting [6], 96 % of control.

Take `CSCCC(NC(=O)CN)C(=O)O` (stereo not drawn): the T/C under setting [7] was 87 % of control; the T/C (dose: 200.0 mg/kg/injection, vehicle: saline) is 90 % of control; the T/C (dose: 400.0 mg/kg/injection, vehicle: saline) is 91 % of control.

Take `CSc1nc(=O)[nH]nc1SCc1ccccc1`: the T/C by setting is: under setting [1], 105 % of control; under setting [2], 104 % of control; under setting [3], 104 % of control; under setting [4], 107 % of control; under setting [5], 96 % of control; under setting [6], 115 % of control.

Take `O=Cc1c(CO)cc(O)c(O)c1O`: the T/C is, setting by setting: under setting [8], 115 % of control; under setting [9], 104 % of control; under setting [1], 89 % of control; under setting [2], 88 % of control.

As to `CN1C(=O)C(=Cc2ccc(O)cc2)C(=O)N(C)C1=O`, the T/C is, setting by setting: under setting [10], 97 % of control; under setting [11], 99 % of control; under setting [12], 101 % of control; under setting [13], 104 % of control; under setting [14], 94 % of control.

For `C=CC(C)(C)n1cc(C2=C(O)C(=O)C(c3cn(C(C)(C)C=C)c4ccccc34)=C(O)C2=O)c2ccccc21`, the T/C is, setting by setting: (dose: 2.5 micrograms/kg/injection, vehicle: DMSO) 87 % of control; (dose: 5.0 micrograms/kg/injection, vehicle: DMSO) 91 % of control; (dose: 10.0 micrograms/kg/injection, vehicle: DMSO) 86 % of control; (dose: 20.0 micrograms/kg/injection, vehicle: DMSO) 87 % of control.

As to `COC(=Nc1ccccc1)SSC(C)C`, the T/C (dose: 0.78 mg/kg/injection, vehicle: saline with Tween-80) is 112 % of control; the T/C (dose: 1.56 mg/kg/injection, vehicle: saline with Tween-80) is 116 % of control; the T/C (dose: 3.12 mg/kg/injection, vehicle: saline with Tween-80) was 87 % of control; the T/C under setting [10] was 86 % of control and 104 % of control; the T/C under setting [11] is 87 % of control and 97 % of control; the T/C under setting [12] was 88 % of control. For the same molecule, the T/C under setting [13] was 102 % of control.

As to `NC(=O)c1ncn2c(=O)n(CCCl)nnc12`, the T/C by setting is: (dose: 3.13 mg/kg/injection, vehicle: suspension in saline) 123 % of control; (dose: 12.5 mg/kg/injection, vehicle: suspension in saline) 225 % of control; (dose: 25.0 mg/kg/injection, vehicle: suspension in saline) 209 % of control.

As to `NC(CCl)=NCC12CC3CC(CC(C3)C1)C2`, the T/C (dose: 1.5 mg/kg/injection, vehicle: Klucel (hydroxypropylcellulose) (HPC)) was 92 % of control; the T/C (dose: 3.0 mg/kg/injection, vehicle: Klucel (hydroxypropylcellulose) (HPC)) is 104 % of control; the T/C under setting [8] was 92 % of control; the T/C (dose: 6.0 mg/kg/injection, vehicle: Klucel (hydroxypropylcellulose) (HPC)) is 110 % of control and 101 % of control; the T/C under setting [9] was 101 % of control; the T/C (dose: 12.0 mg/kg/injection, vehicle: Klucel (hydroxypropylcellulose) (HPC)) is 114 % of control and 104 % of control. In addition, the T/C under setting [1] was 101 % of control and the T/C under setting [2] is 112 % of control.

Regarding `Nc1nc(N)c2cc(S(=O)(=O)c3ccccc3)ccc2n1`, the T/C was 88 % of control under setting [11]; 103 % of control and 105 % of control under setting [12]; 153 % of control and 171 % of control under setting [14].

Take `CCOC(=O)Nc1cc2c(c(N)n1)N=C(c1ccc(Cl)cc1Cl)CN2`: the T/C under setting [15] is 113 % of control and 119 % of control; the T/C under setting [16] is 115 % of control; the T/C under setting [17] is 115 % of control; the T/C under setting [10] is 155 % of control.

On to `COc1cc2c(oc(=O)c3cc(C)cc(OC)c32)c2c(C3OC(C)C(O)C(C)(O)C3O)ccc(O)c12` (stereo not drawn), for which the T/C (dose: 1.56 mg/kg/injection, vehicle: DMSO) was 94 % of control and 103 % of control; the T/C (dose: 3.12 mg/kg/injection, vehicle: DMSO) was 109 % of control and 107 % of control; the T/C (dose: 6.0 mg/kg/injection, vehicle: DMSO) was 88 % of control; the T/C (dose: 6.25 mg/kg/injection, vehicle: DMSO) was 119 % of control and 96 % of control and 104 % of control; the T/C (dose: 12.0 mg/kg/injection, vehicle: DMSO) is 96 % of control; the T/C (dose: 12.5 mg/kg/injection, vehicle: DMSO) was 121 % of control.

With `O=c1cc(-c2ccc3ccccc3n2)oc2ccc(Cl)cc12`, the T/C is, setting by setting: (dose: 10.0 mg/kg/injection, vehicle: saline with Tween-80) 99 % of control; (dose: 20.0 mg/kg/injection, vehicle: saline with Tween-80) 101 % of control; (dose: 40.0 mg/kg/injection, vehicle: saline with Tween-80) 95 % of control.

For `NC(=O)C1=CC2C3C=CC2(O)C(=O)OC3O1` (stereo not drawn), the T/C reads like this: (dose: 3.75 mg/kg/injection, vehicle: Klucel (hydroxypropylcellulose) (HPC)) 108 % of control and 123 % of control; (dose: 7.5 mg/kg/injection, vehicle: Klucel (hydroxypropylcellulose) (HPC)) 118 % of control and 107 % of control; (dose: 15.0 mg/kg/injection, vehicle: Klucel (hydroxypropylcellulose) (HPC)) 114 % of control and 123 % of control.

With `CCOC(=O)N1CCN(CCCCCCOc2ccc(C3CCCCC3)cc2)CC1`, the T/C runs as follows: (dose: 1.56 mg/kg/injection, vehicle: saline) 110 % of control; (dose: 3.13 mg/kg/injection, vehicle: saline) 93 % of control; (dose: 6.25 mg/kg/injection, vehicle: saline) 101 % of control; (dose: 12.5 mg/kg/injection, vehicle: saline) 97 % of control and 105 % of control.

For `O=C1CCC(=O)N1CO`, the T/C is 121 % of control (dose: 50.0 mg/kg/injection, vehicle: saline) and 117 % of control under setting [7].

For the molecule `C/C=C/C=C\C=C/C(O)CC(OP(=O)(O)O)C(C)(O)/C=C/C1CC=CC(=O)O1` (stereo not drawn), the T/C was 107 % of control (dose: 0.38 mg/kg/injection, vehicle: water); 117 % of control (2×) and 123 % of control (dose: 0.75 mg/kg/injection, vehicle: water); 157 % of control and 184 % of control (dose: 6.0 mg/kg/injection, vehicle: water).

For `Cc1ccc(C(=N)c2ccccc2Cc2cccc3ccccc23)c(C)c1`, the T/C by setting is: (dose: 0.75 mg/kg/injection, vehicle: saline with Tween-80) 107 % of control; under setting [15], 112 % of control; under setting [16], 97 % of control; under setting [17], 98 % of control.

The record behind these values is PubChem BioAssay AID200 (DTP/NCI, 2004).
